Test system: pancreatic (MiaPaCa) cancer
Experiment: in vivo pancreatic (MiaPaCa) cancer nude mouse tumor model
Experimental: The control is PEG. Both the control and the active are given once a week to the end. The doses were 500 mg/kg, 750 mg/kg and 1000 mg/kg. The surviving animals average tumor weight in mg is: […]

SMILES: COc1ccc(C=Nn2cc(-c3ccccc3)nc2N)cc1 [2-Amino-1-(4-methoxybenzyliden)amino-4-phenylimidazole]
- Deaths (500 mg/kg once a week, Day 1): 0
- Tumor Weight (surviving animals average) (500 mg/kg once a week, Day 1): 77 mg
- Deaths (500 mg/kg once a week, Day 5): 0
- Tumor Weight (surviving animals average) (500 mg/kg once a week, Day 5): 161 mg
- Deaths (500 mg/kg once a week, Day 9): 0
- Tumor Weight (surviving animals average) (500 mg/kg once a week, Day 9): 322 mg
- Deaths (500 mg/kg once a week, Day 12): 0
- Tumor Weight (surviving animals average) (500 mg/kg once a week, Day 12): 271 mg
- Deaths (500 mg/kg once a week, Day 16): 0
- Tumor Weight (surviving animals average) (500 mg/kg once a week, Day 16): 596 mg
- Deaths (500 mg/kg once a week, Day 19): 0
- Tumor Weight (surviving animals average) (500 mg/kg once a week, Day 19): 640 mg
- Deaths (500 mg/kg once a week, Day 23): 0
- Tumor Weight (surviving animals average) (500 mg/kg once a week, Day 23): 638 mg
- Deaths (500 mg/kg once a week, Day 26): 0
- Tumor Weight (surviving animals average) (500 mg/kg once a week, Day 26): 532 mg
- efficacy in tumor model (500 mg/kg, 750 mg/kg and 1000 mg/kg once a week, control PEG): dose responsive efficacy
- Deaths (750 mg/kg once a week, Day 1): 0
- Tumor Weight (surviving animals average) (750 mg/kg once a week, Day 1): 76 mg
- Deaths (750 mg/kg once a week, Day 5): 0
- Tumor Weight (surviving animals average) (750 mg/kg once a week, Day 5): 117 mg
- Deaths (750 mg/kg once a week, Day 9): 0
- Tumor Weight (surviving animals average) (750 mg/kg once a week, Day 9): 290 mg
- Deaths (750 mg/kg once a week, Day 12): 0
- Tumor Weight (surviving animals average) (750 mg/kg once a week, Day 12): 281 mg
- Deaths (750 mg/kg once a week, Day 16): 0
- Tumor Weight (surviving animals average) (750 mg/kg once a week, Day 16): 369 mg
- Deaths (750 mg/kg once a week, Day 19): 0
- Tumor Weight (surviving animals average) (750 mg/kg once a week, Day 19): 364 mg
- Deaths (750 mg/kg once a week, Day 23): 0
- Tumor Weight (surviving animals average) (750 mg/kg once a week, Day 23): 420 mg
- Deaths (750 mg/kg once a week, Day 26): 0
- Tumor Weight (surviving animals average) (750 mg/kg once a week, Day 26): 418 mg
- Deaths (1000 mg/kg once a week, Day 1): 0
- Tumor Weight (surviving animals average) (1000 mg/kg once a week, Day 1): 90 mg
- Deaths (1000 mg/kg once a week, Day 5): 0
- Tumor Weight (surviving animals average) (1000 mg/kg once a week, Day 5): 90 mg
- Deaths (1000 mg/kg once a week, Day 9): 0
- Tumor Weight (surviving animals average) (1000 mg/kg once a week, Day 9): 150 mg
- Deaths (1000 mg/kg once a week, Day 12): 0
- Tumor Weight (surviving animals average) (1000 mg/kg once a week, Day 12): 130 mg
- Deaths (1000 mg/kg once a week, Day 16): 0
- Tumor Weight (surviving animals average) (1000 mg/kg once a week, Day 16): 120 mg
- Deaths (1000 mg/kg once a week, Day 19): 1
- Tumor Weight (surviving animals average) (1000 mg/kg once a week, Day 19): 110 mg
- Deaths (1000 mg/kg once a week, Day 23): 0
- Tumor Weight (surviving animals average) (1000 mg/kg once a week, Day 23): 198 mg
- Deaths (1000 mg/kg once a week, Day 26): 0
- Tumor Weight (surviving animals average) (1000 mg/kg once a week, Day 26): 192 mg

From patent US20010044457A1, “Cancer Treatment” (priority 2000, published 2001)
